# Patent publication EP4813383A1, “USE OF TAFAMIDIS AND PHARMACEUTICALLY ACCEPTABLE SALT THEREOF IN PREVENTION, ALLEVIATION, OR TREATMENT OF DISEASES ASSOCIATED WITH HIF-2a” (Huaya Jiyuan (Shenzhen) Pharmaceutical Co., Ltd., priority 2024, dated 2025)
# Assays:
# [1] = tested on: 5/6 nephrectomy (5/6Nx) rat model; experiment: 5/6 nephrectomy (5/6Nx) rat model; type: in vivo, Male Sprague Dawley (SD) rats
# Description: Male Sprague Dawley (SD) rats are used to establish a renal injury-induced anemia model through 5/6 nephrectomy surgery to investigate the erythropoiesis-promoting effect of tafamidis. After a one-week acclimation period, the rats are anesthetized with isoflurane, and the left kidney is exposed through a midline abdominal incision. Ligatures are placed at the upper one-third and lower one-third positions of the kidney, and the corresponding renal tissues outside the ligatures are excised. After a one-week recovery period, the right kidney is excised, with eight rats assigned to the nephrectomy group and the remaining eight rats serving as a non-operated normal control group. At week 4, renal dysfunction in the operated rats is confirmed by assessing serum urea and creatinine levels. Tafamidis and roxadustat are dissolved in a vehicle containing 10% dimethyl sulfoxide (DMSO), 30% polyethylene glycol 400 (PEG 400), 5% Tween-80, 1% hydrochloric acid (113.3 mM), 9% 0.1 N sodium hydroxide, and 45% normal saline. […] Starting from week 6, the tafamidis treatment group and the roxadustat group are orally administered the corresponding compound at 10 mg/kg daily (10 mg orally per day per 1 kg body weight of rat) for four weeks, while the sham-operated group and the 5/6 nephrectomy model (5/6Nx) rats are administered the vehicle based on the same dosing regimen. Hematological analysis is performed weekly, and urine samples are collected on the day following the final treatment, so as to determine urinary total protein (UTP) and urinary creatinine (UCREA). Hematological analysis is performed using the Sysmex Europe XN-2000 automated hematology analyzer, and urinalysis is performed using the Cobas C501 automated analyzer, both using commercially available kits in accordance with the manufacturers' instructions. After sample collection, the rats are euthanized. Statistical significance is determined by one-way analysis of variance (ANOVA), and then a Dunnett's test is performed for comparison with the 5/6Nx group (*P < 0.05, **P < 0.01, ***P < 0.001).
# [2] = tested on: Unilateral ureteral obstruction (UUO)-induced mouse model; experiment: Unilateral ureteral obstruction (UUO)-induced mouse model of renal injury and anemia; type: in vivo, Male Balb/c mice; details: for Pathological score for renal tubular injury: H&E staining, Paller score, UUO control group 4.56 ± 0.19; for Urea level: serum after final treatment, UUO control group 6.26 ± 0.14; for Reduction in fibrosis: Masson's trichrome staining, interstitial fibrosis, UUO control group 26.0 ± 1.9%
# Description: Animal model establishment: Male Balb/c mice are anesthetized with isoflurane and then secured to an operating table with medical tape. After preparation of an abdominal midline incision site, the surgical part is disinfected with 75% ethanol-iodine tincture-ethanol. Subsequently, an incision is made along the linea alba of the mouse, and the incision is held open with a laparotomy retractor. The left ureter is isolated using a sterile cotton swab and curved forceps and ligated near the bladder dome using 3-0 suture. One drop of normal saline is added into the abdominal cavity, and then the abdomen is sutured. Following recovery on a heating pad, the mouse is returned to the cage, maintained under normal feeding and drinking conditions, and observed, thereby completing model establishment. For the sham-operated group, all procedures are the same as those of the model group except that no ligation is performed. For the treatment groups in the UUO model, male Balb/c mice, after a one-week acclimation period, are orally administered tafamidis (tafamidis treatment group) or roxadustat (roxadustat treatment group) by gavage for three consecutive days. The dose in the first tafamidis treatment group is 5 mg/kg/day, the dose in the second tafamidis treatment group is 10 mg/kg/day, and the dose in the roxadustat treatment group is 10 mg/kg/day. The drug administration is continued for seven days after unilateral ureteral obstruction surgery. A solvent is administered to the mice in the sham-operated group and the UUO control group based on the same dosing regimen. Serum analysis is performed after the final treatment. Serum analysis is performed using a Mindray BS-2000M automated […] analyzer with commercially available kits based on the manufacturer's instructions. After sample collection, the […] are euthanized. Statistical significance is determined by one-way analysis of variance (ANOVA), and then a Dunnett's test is performed for comparison with the UUO control group (*P < 0.05, **P < 0.01, ***P < 0.001).
# Isolated left kidney samples from mice are fixed in 4% paraformaldehyde, dehydrated, embedded in paraffin, and sectioned. The tissue sections are 4 µm thick, and are subsequently subjected to histochemical staining such as H&E staining and Masson's trichrome staining. After staining, the sections are scanned using advanced three-dimensional histological imaging technology, and high-resolution images are captured using a Pannoramic DESK/MIDI/250/1000 system. H&E staining is analyzed to evaluate renal tubular injury. 10 fields are randomly selected from each sample, and examined at a 40× magnification. The degree of renal tubular injury is assessed using a semi-quantitative scoring system (Paller score): 0 (no injury), 1 (<25% injury), 2 (25% to 50% injury), 3 (50% to 75% injury), and 4 (>75% injury). In addition, the entire tissue section is assessed at a 0.7× magnification to determine the extent of collagen fiber deposition shown by Masson's trichrome staining. Semi-quantitative analysis of the collagen fiber area is performed using Image-Pro Plus 6.0 software. Statistical significance is determined by one-way analysis of variance (ANOVA), and then a Dunnett's test is performed for comparison with the UUO control group (*P < 0.05, **P < 0.01, ***P < 0.001).
# [3] = 10 mg/kg daily oral for four weeks, urine on the day after final treatment
# [4] = 10 mg/kg/day oral gavage, listed as Roxadustat
"UTP excretion levels, increase compared with the 5/6Nx group ([1]; 10 mg/kg daily oral for four weeks, urine on the day after final treatment, p < 0.01)","RBC levels (erythrocytosis) ([1]; 10 mg/kg daily oral, day 14, against the physiological range of the healthy control group)",Compound,"UTP excretion levels [1, 3]","effect on UCREA [1, 3]","red blood cell (RBC) count ([1]; 10 mg/kg daily oral, week 4, 5/6Nx group 7.7 ± 0.3 × 10^12, p < 0.05)",Gross observation: pallor of the obstructed kidney ([2]; 5 mg/kg/day oral gavage),Pathological score for renal tubular injury ([2]; 5 mg/kg/day oral gavage),Urea level ([2]; 5 mg/kg/day oral gavage),Pathological score for renal tubular injury ([2]; 10 mg/kg/day oral gavage),Urea level ([2]; 10 mg/kg/day oral gavage),"Pathological score for renal tubular injury [2, 4]",Reduction in fibrosis ([2]; 10 mg/kg/day oral gavage),"Reduction in fibrosis [2, 4]","Urea level [2, 4]"
,,"O=C(O)c1ccc2nc(-c3cc(Cl)cc(Cl)c3)oc2c1 [tafamidis, 2-(3,5-dichlorophenyl)-1,3-benzoxazole-6-carboxylic acid]",remain at baseline levels,essentially no effect,8.2 ± 0.3 × 10^12 cells/L,significantly alleviates,"2.85 ± 0.83, P < 0.05","5.67 ± 0.23, P = 0.10 mmol/L","2.93 ± 0.35, P < 0.05","5.28 ± 0.29, P < 0.05 mmol/L",,,,
3.3 fold,notable erythrocytosis,Cc1nc(C(=O)NCC(=O)O)c(O)c2ccc(Oc3ccccc3)cc12 [roxadustat],,,,,,,4.78 ± 0.09,5.36 ± 0.10 mmol/L,"4.78 ± 0.09, P = 0.98",21.8 ± 1.6%,"21.8 ± 1.6%, P = 0.37","5.36 ± 0.10, P < 0.001 mmol/L"
